Details in all cases: Compound concentration 10 µM
Assay [1] addresses T1, 5-hydroxytryptamine receptor 1A (Homo sapiens) (UniProt P08908).
T1 sequence (whole entry): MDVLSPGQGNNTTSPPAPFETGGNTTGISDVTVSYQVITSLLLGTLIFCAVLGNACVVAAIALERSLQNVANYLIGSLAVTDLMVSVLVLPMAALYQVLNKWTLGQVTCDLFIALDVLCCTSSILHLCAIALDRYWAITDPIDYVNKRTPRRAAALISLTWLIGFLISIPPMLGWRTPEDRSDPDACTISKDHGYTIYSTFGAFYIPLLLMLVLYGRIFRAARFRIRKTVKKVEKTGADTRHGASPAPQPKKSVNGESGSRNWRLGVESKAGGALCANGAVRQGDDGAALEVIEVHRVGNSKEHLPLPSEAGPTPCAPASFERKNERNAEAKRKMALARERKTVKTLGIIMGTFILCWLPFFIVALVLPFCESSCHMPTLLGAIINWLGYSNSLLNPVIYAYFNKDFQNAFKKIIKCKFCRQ
Description: PDSP Primary Binding target: HTR1A - Compounds are tested at 10 uM concentration, plate are incubated at room temperature in the dark for 90 minutes. Reaction are stopped by vacuum filtration onto 0.3% polyethyleneimine soaked filter mats using Filtermate harvester. Scintilation cocktail is then melted onto microwave-dried filters on a hot plate and the radio activity is counted in Microbia counter.

The target of assay [2] is T2, Alpha-1B adrenergic receptor (Homo sapiens) (UniProt P35368).
T2 sequence (whole entry): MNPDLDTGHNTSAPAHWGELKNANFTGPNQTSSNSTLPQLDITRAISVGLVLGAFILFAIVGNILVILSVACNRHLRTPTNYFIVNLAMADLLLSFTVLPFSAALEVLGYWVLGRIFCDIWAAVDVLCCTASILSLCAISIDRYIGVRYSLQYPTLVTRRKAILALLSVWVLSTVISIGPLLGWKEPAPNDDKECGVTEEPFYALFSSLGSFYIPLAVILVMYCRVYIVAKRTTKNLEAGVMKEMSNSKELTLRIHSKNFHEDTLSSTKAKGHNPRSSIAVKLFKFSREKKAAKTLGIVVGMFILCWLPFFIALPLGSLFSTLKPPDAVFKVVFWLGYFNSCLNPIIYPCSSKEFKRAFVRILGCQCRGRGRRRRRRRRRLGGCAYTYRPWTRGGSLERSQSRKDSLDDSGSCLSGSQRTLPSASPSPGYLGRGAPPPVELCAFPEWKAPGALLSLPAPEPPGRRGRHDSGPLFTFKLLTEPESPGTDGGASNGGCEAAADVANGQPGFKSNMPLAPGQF
Description: PDSP Primary Binding target: ADRA1B - Compounds are tested at 10 uM concentration, plate are incubated at room temperature in the dark for 90 minutes. Reaction are stopped by vacuum filtration onto 0.3% polyethyleneimine soaked filter mats using Filtermate harvester. Scintilation cocktail is then melted onto microwave-dried filters on a hot plate and the radio activity is counted in Microbia counter.

Assay [3] has as its target T3, D(4) dopamine receptor (Homo sapiens) (UniProt P21917).
T3 sequence (whole entry): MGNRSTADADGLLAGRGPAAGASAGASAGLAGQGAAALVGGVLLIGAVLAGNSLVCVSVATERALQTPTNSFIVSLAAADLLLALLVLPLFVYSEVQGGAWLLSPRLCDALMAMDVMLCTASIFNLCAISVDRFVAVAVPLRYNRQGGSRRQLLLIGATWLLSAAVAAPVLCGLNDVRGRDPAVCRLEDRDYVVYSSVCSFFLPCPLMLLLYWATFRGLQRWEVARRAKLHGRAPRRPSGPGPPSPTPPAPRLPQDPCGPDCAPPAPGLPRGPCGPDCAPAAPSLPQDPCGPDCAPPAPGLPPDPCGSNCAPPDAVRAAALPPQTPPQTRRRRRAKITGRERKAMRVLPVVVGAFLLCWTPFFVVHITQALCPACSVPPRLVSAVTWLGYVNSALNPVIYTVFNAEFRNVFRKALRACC
Description: PDSP Primary Binding target: DRD4 - Compounds are tested at 10 uM concentration, plate are incubated at room temperature in the dark for 90 minutes. Reaction are stopped by vacuum filtration onto 0.3% polyethyleneimine soaked filter mats using Filtermate harvester. Scintilation cocktail is then melted onto microwave-dried filters on a hot plate and the radio activity is counted in Microbia counter.

In assay [4] the target is T4, 5-hydroxytryptamine receptor 2C (Homo sapiens) (UniProt P28335).
T4 sequence (whole entry): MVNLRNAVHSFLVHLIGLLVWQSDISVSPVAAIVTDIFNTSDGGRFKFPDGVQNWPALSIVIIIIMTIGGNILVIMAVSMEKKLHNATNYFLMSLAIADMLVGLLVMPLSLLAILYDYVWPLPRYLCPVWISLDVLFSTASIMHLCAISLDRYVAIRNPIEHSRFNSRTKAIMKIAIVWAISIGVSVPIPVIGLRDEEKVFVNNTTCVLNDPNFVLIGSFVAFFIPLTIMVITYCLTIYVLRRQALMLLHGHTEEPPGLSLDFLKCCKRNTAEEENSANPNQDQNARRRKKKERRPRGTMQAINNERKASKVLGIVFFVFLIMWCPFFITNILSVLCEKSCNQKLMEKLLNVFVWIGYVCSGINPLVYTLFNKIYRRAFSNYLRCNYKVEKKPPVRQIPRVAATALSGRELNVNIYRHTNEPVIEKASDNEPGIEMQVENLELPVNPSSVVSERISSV
Description: PDSP Primary Binding target: HTR2C - Compounds are tested at 10 uM concentration, plate are incubated at room temperature in the dark for 90 minutes. Reaction are stopped by vacuum filtration onto 0.3% polyethyleneimine soaked filter mats using Filtermate harvester. Scintilation cocktail is then melted onto microwave-dried filters on a hot plate and the radio activity is counted in Microbia counter.

For assay [5], the target named is T5, Alpha-2A adrenergic receptor (Homo sapiens) (UniProt P08913).
T5 sequence (whole entry): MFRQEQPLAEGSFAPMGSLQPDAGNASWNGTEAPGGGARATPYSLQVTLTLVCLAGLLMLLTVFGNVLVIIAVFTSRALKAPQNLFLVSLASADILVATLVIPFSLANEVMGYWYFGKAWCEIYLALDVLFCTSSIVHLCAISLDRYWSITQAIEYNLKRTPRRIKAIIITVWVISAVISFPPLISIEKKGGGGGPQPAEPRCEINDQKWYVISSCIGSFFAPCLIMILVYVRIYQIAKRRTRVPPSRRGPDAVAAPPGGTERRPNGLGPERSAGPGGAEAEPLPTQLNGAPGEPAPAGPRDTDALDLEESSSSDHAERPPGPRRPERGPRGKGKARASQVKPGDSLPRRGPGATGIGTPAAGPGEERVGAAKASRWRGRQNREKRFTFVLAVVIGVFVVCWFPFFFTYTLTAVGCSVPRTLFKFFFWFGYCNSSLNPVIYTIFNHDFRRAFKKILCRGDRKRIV
Description: PDSP Primary Binding target: ADRA2A - Compounds are tested at 10 uM concentration, plate are incubated at room temperature in the dark for 90 minutes. Reaction are stopped by vacuum filtration onto 0.3% polyethyleneimine soaked filter mats using Filtermate harvester. Scintilation cocktail is then melted onto microwave-dried filters on a hot plate and the radio activity is counted in Microbia counter.

Assay [6] concerns the target Kappa-type opioid receptor (Homo sapiens) (UniProt P41145).
Description: PDSP Primary Binding target: OPRK1 - Compounds are tested at 10 uM concentration, plate are incubated at room temperature in the dark for 90 minutes. Reaction are stopped by vacuum filtration onto 0.3% polyethyleneimine soaked filter mats using Filtermate harvester. Scintilation cocktail is then melted onto microwave-dried filters on a hot plate and the radio activity is counted in Microbia counter.

SMILES strings stand for the structures.

Chain of Kappa-type opioid receptor (Homo sapiens) (P41145 whole entry): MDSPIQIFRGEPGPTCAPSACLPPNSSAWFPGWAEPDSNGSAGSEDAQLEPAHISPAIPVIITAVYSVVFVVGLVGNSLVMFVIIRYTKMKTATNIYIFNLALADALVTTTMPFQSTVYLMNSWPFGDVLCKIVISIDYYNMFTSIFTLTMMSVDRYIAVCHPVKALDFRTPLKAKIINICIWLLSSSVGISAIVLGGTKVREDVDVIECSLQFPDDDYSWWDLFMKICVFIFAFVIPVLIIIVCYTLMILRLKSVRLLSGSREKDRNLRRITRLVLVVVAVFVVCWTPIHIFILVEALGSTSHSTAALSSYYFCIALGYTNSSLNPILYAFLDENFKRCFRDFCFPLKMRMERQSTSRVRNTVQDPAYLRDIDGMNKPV

As a reminder, the inhibition is the change of the read-out against control, counted positive when it falls. `CC(C)Oc1ccccc1C(=O)Nc1ccccc1C(=O)Nc1cccc(S(=O)(=O)C(F)(F)F)c1`: the inhibition was 6.76% in assay [1], -9.86% in assay [2], 43% in assay [3] and 11.3% in assay [4].

Consider `Brc1c(NC2=NCCN2)ccc2nccnc12`, for which the inhibition was -4.03% in assay [1]; 103% in assay [5]; 55.7% in assay [2]; 16.9% in assay [3]; 6.61% in assay [4].

Regarding `O=C1N/C(=N/c2ccccc2F)S/C1=C\c1ccc(C(=O)O)cc1`, the inhibition in assay [1] was 2.18%; in assay [3], 79.2%.

In the case of `CCCNS(=O)(=O)Nc1ncnc(OCCOc2ncc(Br)cn2)c1-c1ccc(Br)cc1`, the inhibition in assay [1] is 9.06%; in assay [6], 1.8%; in assay [2], 12.1%; in assay [4], 4.95%.

As to `CCCn1c(=O)c2nc(C34CC5CC(CC3C5)C4)[nH]c2n(CCC)c1=O`, the inhibition in assay [1] was -4.72%; in assay [6], 4.62%; in assay [5] it was 10%; in assay [3], 1.06%; in assay [4], -0.12%.

Take `NCCc1c[nH]c2ccc(C(N)=O)cc12`: the inhibition in assay [1] was 91.4%; in assay [6] it was 2.24%; in assay [5], 69.8%; in assay [2] it was 3.04%; in assay [3], 8.02%; in assay [4], 71.4%.

As to `CCc1nn2c(C)cc(C)nc2c1Cc1ccc(-c2nnc(C3CCNCC3)o2)cc1`, the inhibition in assay [1] is -1.59%; in assay [6], 4.27%; in assay [5], 42.9%; in assay [2], -7.24%; in assay [3] it was -4.88%; in assay [4], 10.1%.

On to `CC(C)NC(=O)c1ccc(C#Cc2ccncc2)cn1`, for which the inhibition in assay [6] was -1.6%.

For the compound `FC(F)(F)c1c(N2CCC(c3ccccc3)CC2)ccn2c(CC3CC3)nnc12`, the results for the inhibition in assay [1] and in assay [6] were -5.72% and 10.5%, respectively.

`Clc1cccc(Cl)c1NC1=NCCN1`: the inhibition in assay [1] was 8%; in assay [6], 11.2%; in assay [5] it was 103%; in assay [2], 65.3%; in assay [3] it was -2.87%; in assay [4], 55.7%.

As for `O=C(O)C1CN(Cc2ccc(OCc3ccc(Cl)c(Cl)c3)cc2)C1`, the inhibition in assay [1] was 13.2%; in assay [6], -7.92%; in assay [5], 29.7%; in assay [3] it was -0.79%.

Consider `O=C(O)COc1cccc(CN(Cc2ccc(-n3cccn3)cc2)S(=O)(=O)c2cccnc2)c1`, for which the inhibition in assay [1] is -0.9%; in assay [6], -1.11%; in assay [5], -8.07%; in assay [2], -5.67%; in assay [3], 4.77%; in assay [4] it was 29.9%.

Consider `c1cc(CN2CCCNCCNCCCNCC2)ccc1CN1CCCNCCNCCCNCC1`, for which the inhibition was -6.66% in assay [1], 13.8% in assay [6], 7.87% in assay [5] and 42.2% in assay [2].

With `Cc1nc(C#Cc2ccnc(Cl)c2)c(C)n1-c1ccc(OC(F)(F)F)cc1`, the inhibition in assay [1] is 10.3%; in assay [6], 5.17%; in assay [5] it was 23.9%; in assay [3], -0.11%; in assay [4], 1.86%.

With `CO[C@@H]1COCC[C@@H]1N[C@@H]1CC[C@@](C(=O)N2CCc3ncc(C(F)(F)F)cc3C2)(C(C)C)C1`, the inhibition in assay [1] was 19.6%; in assay [6] it was 25.9%; in assay [2], 2.58%; in assay [3] it was -3.53%.

For the compound `Cc1nc(-c2ccc(C(F)(F)F)cc2)sc1COc1ccc([C@H](CC(=O)O)c2ccon2)cc1`, the figures for the inhibition in assay [6], in assay [2] and in assay [4] were 6.61%, 69% and -6.07%, respectively.

For the compound `Cc1c(F)cccc1NC(=O)Nc1ccc(Cl)c(S(=O)(=O)[C@H]2CCCNC2)c1O`, the inhibition in assay [6] is -8.19%; in assay [3], 6.5%; in assay [4], -7.64%.

On to `O=C1O[C@]2(CC[C@H](C(=O)Nc3ccn(-c4ccccc4F)n3)CC2)c2cnccc21`, for which the inhibition in assay [1] is 19.7%; in assay [6], -6.46%; in assay [5] it was -9.69%; in assay [2], 3.66%; in assay [4], 18.3%.

For the compound `N[C@H](C(=O)O)c1ccc(C(=O)O)c(C(=O)O)c1`, the inhibition in assay [1] was 8.99%; in assay [6] it was 4.93%; in assay [2] it was -0.2%; in assay [3] it was -8.24%; in assay [4] it was 13.4%.

As to `O=C(O)CC1CCC2(CC1)CCN(c1cc(OC(F)(F)F)ccc1Cl)CC2`, the inhibition in assay [1] is -1.2%; in assay [6], 10.9%; in assay [2] it was 0.25%; in assay [4] it was 13.1%.

For `Cc1cc(C)cc(-c2cnc3cc(Cl)c(-c4cccc(O)c4)cc3c2OCCCN)c1`, the inhibition was 64.1% in assay [1]; 60.7% in assay [6]; 64.9% in assay [5]; 81.8% in assay [2]; 32.1% in assay [3]; 79.8% in assay [4].

With `FC(F)(F)c1cccc(-c2noc(-c3cc(-c4ccccc4)c(C(F)(F)F)s3)n2)c1`, the inhibition in assay [1] was 2.88%; in assay [6] it was 46.5%; in assay [5], -2.79%; in assay [3], -0.65%; in assay [4] it was 1.03%.

With `COc1ccc(CNC(=O)c2cc(-c3cncc(Cl)c3)cnc2-c2ccccn2)nc1OC`, the inhibition in assay [1] is -8.5%; in assay [6] it was 23.7%; in assay [2], 0.01%; in assay [3], -1.86%.

As for `CN1CCN(c2ccc(Nc3c4ccccc4nc4ccccc34)cc2)CC1`, the inhibition is 8.52% in assay [1]; 38.7% in assay [6]; 70.5% in assay [5]; 53.5% in assay [2]; 13.3% in assay [3]; 16.7% in assay [4].

Turning to `C[N+]1(C)[C@@H]2C[C@@H](OC(=O)C(O)(c3cccs3)c3cccs3)C[C@H]1[C@@H]1O[C@@H]12`, the inhibition in assay [6] is -0.32%; in assay [5], 6.5%; in assay [2], -7.35%; in assay [3] it was 20%; in assay [4], -6.52%.

Source of the values: ChEMBL document CHEMBL5442219.
